Molecules are shown by their SMILES.

Chain of human NAMPT enzyme (His-hNAMPT) (P43490 whole entry): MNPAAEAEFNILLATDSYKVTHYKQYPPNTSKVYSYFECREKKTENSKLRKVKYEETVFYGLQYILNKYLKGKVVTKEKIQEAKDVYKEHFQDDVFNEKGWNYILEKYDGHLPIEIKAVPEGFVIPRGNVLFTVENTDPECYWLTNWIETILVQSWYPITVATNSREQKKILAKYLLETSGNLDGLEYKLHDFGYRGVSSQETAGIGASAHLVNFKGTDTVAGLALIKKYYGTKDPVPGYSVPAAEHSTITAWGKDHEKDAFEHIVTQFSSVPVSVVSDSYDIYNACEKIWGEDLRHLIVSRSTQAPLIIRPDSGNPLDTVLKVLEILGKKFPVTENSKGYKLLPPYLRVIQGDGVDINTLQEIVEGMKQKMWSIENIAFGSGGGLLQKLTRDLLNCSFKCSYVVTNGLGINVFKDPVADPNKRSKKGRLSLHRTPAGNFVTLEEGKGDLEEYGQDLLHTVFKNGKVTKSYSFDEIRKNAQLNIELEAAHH

In the assay the target is human NAMPT enzyme (His-hNAMPT) (Homo sapiens (Human), UniProt P43490). Nature of the assay: NAMPT enzymatic inhibition assay (fluorescence, NADH product). The format is biochemical. The following applies: [BPS]; read-out: NAMPT IC50 (μM) [BPS]. The method, then:
The compounds were then diluted 20 fold in an intermediate dilution to 5% DMSO and water. Finally 10 μL of each compound was added to the assay plate, in duplicate, with highest concentration at 30 μM and the lowest at 0.001 μM in a final volume of 50 μL and 1% DMSO concentration. Each assay also tested, in parallel, two reference compounds, FK866 and GMX1778, with highest concentration at 10 μM and lowest at 0.0003 μM. 200 ng of human NAMPT enzyme (His-hNAMPT obtained from E. coli expression system) diluted in […] (tris-buffered saline-Polysorbate 20) 1× was added to each well in a volume of 10 μL and the compounds were incubated with the enzyme at room temperature for 20 minutes. After the incubation, 30 μL of master mixture were added to each well. The master mixture contained: 50 mM Tris-HCl, pH 8.0, 12.5 mM MgCl2, 20 μM nicotinamide, 40 μM phosphoribosyl pyrophosphate (PRPP), 20 μM adenosine triphosphate (ATP), 30 μg/mL of alcohol dehydrogenase, 10 μg/mL of NMNAT, 1.5% alcohol, 1 mM dithiothreitol (DTT), 0.02% bovine serum albumin (BSA), 0.01% Tween 20. The reaction was performed at 30° C. for 60 minutes. Fluorescence intensity was measured at an excitation of 340 nm and an emission of 460 nm using a Tecan Infinite M1000 microplate reader. The fluorescence values indicated increase of NADH product.
Enzyme activity assay was performed in duplicate at each concentration. The fluorescence data was analyzed and compared. In the absence of the compound, the intensity (Ce) in each data set was defined as 100% activity. In the absence of enzyme, the intensity (C0) in each data set was defined as 0% activity. The percent activity in the presence of each compound was calculated according to the following equation: % activity=(C−C0)/(Ce−C0), where C is the fluorescence in the presence of the compound.
The % activity vs. compound concentrations were then plotted using non-linear regression analysis of Sigmoidal dose-response curve generated with the equation Y=B+(T−B)/1+10^((Log EC50-X)×Hill Slope), where Y is percent activity, B is minimum percent activity, T is maximum percent activity, X is logarithm of compound and Hill Slope=slope factor or Hill coefficient.
The IC50 is the concentration that inhibits the measured activity by half. Take `CCN(CC)C(=O)N1C[C@@H]2[C@@H](CCNC(=O)/C=C/c3ccc(N)nc3)[C@@H]2C1` [Example 33, (1R,5S,6s)-6-(2-((E)-3-(6-aminopyridin-3-yl)acrylamido)ethyl)-N,N-diethyl-3-azabicyclo[3.1.0]hexane-3-carboxamide]: the IC50 lay in the range of 0.01 to 0.49 µM.

In the case of `Nc1ccc(/C=C/C(=O)NCC[C@@H]2[C@H]3CN(C(=O)OC4CCCC4)C[C@@H]23)cn1` [Example 34, (1R,5S,6s)-cyclopentyl 6-(2-((E)-3-(6-aminopyridin-3-yl)acrylamido)ethyl)-3-azabicyclo[3.1.0]hexane-3-carboxylate], the IC50 lay within 0.01 to 0.49 µM.

Take `CC1(OC(=O)N2C[C@@H]3[C@@H](CCNC(=O)/C=C/c4ccncc4)[C@@H]3C2)COC1` [Example 35, (1R,5S,6s)-3-methyloxetan-3-yl 6-(2-((E)-3-(pyridin-4-yl)acrylamido)ethyl)-3-azabicyclo[3.1.0]hexane-3-carboxylate]: the IC50 fell in the range of 1 to 29 µM.

For the molecule `CC1(OC(=O)N2C[C@@H]3[C@@H](CCNC(=O)c4cc5cnccc5[nH]4)[C@@H]3C2)COC1` [Example 36, (1R,5S,6s)-3-methyloxetan-3-yl 6-(2-(1H-pyrrolo[3,2-c]pyridine-2-carboxamido)ethyl)-3-azabicyclo[3.1.0]hexane-3-carboxylate], the IC50 was 0.01 to 0.49 µM.

As to `CC1(OC(=O)N2C[C@@H]3[C@@H](CCNC(=O)c4cc5cnccc5s4)[C@@H]3C2)COC1` [Example 37, (1R,5S,6s)-3-methyloxetan-3-yl 6-(2-(thieno[3,2-c]pyridine-2-carboxamido)ethyl)-3-azabicyclo[3.1.0]hexane-3-carboxylate], the IC50 lay within 0.01 to 0.49 µM.

Take `CC1(OC(=O)N2C[C@@H]3[C@@H](CCNC(=O)c4ccc5nccn5c4)[C@@H]3C2)COC1` [Example 38, (1R,5S,6s)-3-methyloxetan-3-yl 6-(2-(imidazo[1,2-a]pyridine-6-carboxamido)ethyl)-3-azabicyclo[3.1.0]hexane-3-carboxylate]: the IC50 lay in the range of 0.01 to 0.49 µM.

For the molecule `Nc1ccc(/C=C/C(=O)NCC[C@@H]2[C@H]3CN(C(=O)N4CCCC4)C[C@@H]23)cn1` [Example 39, (E)-3-(6-aminopyridin-3-yl)-N-(2-((1R,5S,6s)-3-(pyrrolidine-1-carbonyl)-3-azabicyclo[3.1.0]hexan-6-yl)ethyl)acrylamide], the IC50 was in the range of 0.01 to 0.49 µM.

In the case of `Nc1ccc(/C=C/C(=O)NCC[C@@H]2[C@H]3CN(C(=O)Oc4ccccc4)C[C@@H]23)cn1` [Example 40, (1R,5S,6s)-phenyl 6-(2-((E)-3-(6-aminopyridin-3-yl)acrylamido)ethyl)-3-azabicyclo[3.1.0]hexane-3-carboxylate], the IC50 lay within 0.01 to 0.49 µM.

On to `Nc1ccc(/C=C/C(=O)NCC[C@@H]2[C@H]3CN(C(=O)OC4CCOCC4)C[C@@H]23)cn1` [Example 41, (1R,5S,6s)-tetrahydro-2H-pyran-4-yl 6-(2-((E)-3-(6-aminopyridin-3-yl)acrylamido)ethyl)-3-azabicyclo[3.1.0]hexane-3-carboxylate], for which the IC50 is 0.01 to 0.49 µM.

With `CC1(OC(=O)N2C[C@@H]3[C@@H](CCNC(=O)N4Cc5ccc(F)cc5C4)[C@@H]3C2)COC1` [Example 42, (1R,5S,6s)-3-methyloxetan-3-yl 6-(2-(5-fluoroisoindoline-2-carboxamido)ethyl)-3-azabicyclo[3.1.0]hexane-3-carboxylate], the IC50 is 0.01 to 0.49 µM.

As for `CC1(OC(=O)N2C[C@@H]3[C@@H](CCNC(=O)c4cnc5nccn5c4)[C@@H]3C2)COC1` [Example 43, (1R,5S,6s)-3-methyloxetan-3-yl 6-(2-(imidazo[1,2-a]pyrimidine-6-carboxamido)ethyl)-3-azabicyclo[3.1.0]hexane-3-carboxylate], the IC50 lay within 0.01 to 0.49 µM.

Take `CC1(OC(=O)N2C[C@@H]3[C@@H](CCNC(=O)c4ccc5ncsc5c4)[C@@H]3C2)COC1` [Example 44, (1R,5S,6s)-3-methyloxetan-3-yl 6-(2-(benzo[d]thiazole-6-carboxamido)ethyl)-3-azabicyclo[3.1.0]hexane-3-carboxylate]: the IC50 lay in the range of 0.01 to 0.49 µM.

Source of the values: patent publication US12421210B2, “Fused bicyclic heterocycles as therapeutic agents” (NEW YORK UNIVERSITY, priority 2018, dated 2025).
